Assay results reported in patent publication EP2668952A2, “Aqueous formulations of bisphosphonates, vitamin D and benzyl alcohol suitable for subcutaneous or intramuscular use” (Romano, Paolo, priority 2012, dated 2013).

What was measured:
[1] = Particulate matter in water solutions of disodium clodronate and cholecalciferol with organic solvents; assay type: physicochemical; set-up: key: *: opalescent; **: turbid; ***: precipitate; settings: disodium clodronate 100 mg/3ml, cholecalciferol 0.35mg/3ml
Experimental: (§1) In order to assess the degree of water solubilization of bisphosphonates and vitamin D by addition of variable amounts of benzyl alcohol and other water mixable organic solvents, 2 mother solutions at concentration of 100 mg disodium clodronate or 5 mg zoledronic acid in 2 ml water for injection, examples of respectively high and low dose bisphosphonates, were prepared and buffered with sodium bicarbonate to pH 6.5.
(§2) Two-ml samples of both solutions with the two bisphosphonates mentioned above were then diluted with water to approx. 3 ml (3 samples: more precisely 2997 µl, 2991µl, and 2970 µl), to 2.7 ml (1 sample) and to 2.4 ml (1 sample).A mother solution containing cholecalciferol in benzyl alcohol or other water mixable organic solvents in a ratio of 0.35 mg : 3.0 mg respectively (11.67% w/w) was also prepared and 2 series of 5 samples of 3.35 mg of it were taken and kept as such (1 sample) or diluted with 6.0 mg, 27.0 mg, 297.0 and 597.0 mg respectively of the same solvent (4 samples).The 5 cholecalciferol solution samples were then added, under slow stirring, to the 5 solution samples of each bisphosphonate in the order, so as to give mixtures with solvent concentration of 0.1, 0.3, 1.0, 10.0 and 20.0% (w/v), left to stand for 10 minutes and then examined according to the microscopic particle count test or visually (an instrumental particle counter was unnecessary).
Table Va: particulate matter in water solutions of disodium clodronate 100 mg/3ml and cholecalciferol 0.35mg / 3ml, containing different % concentrations (w/v) of organic solvents.

[2] = Particulate matter in water solutions of zoledronic acid and cholecalciferol with organic solvents; assay type: physicochemical; set-up: key: *: opalescent; **: turbid; ***: precipitate; settings: zoledronic acid 5.0 mg/3ml, cholecalciferol 0.35 mg/3ml
Experimental: as §1, §2
Table Vb: particulate matter in water solutions of zoledronic acid 5.0 mg/3ml and cholecalciferol 0.35 mg / 3ml, containing different % concentrations (w/v) of organic solvents.

[3] = 10 % (w/v) solvent, count or visual symbol
[4] = 20 % (w/v) solvent, visual symbol
[5] = 10.0 % (w/v) solvent, count or visual symbol
[6] = 20.0 % (w/v) solvent, visual symbol

Compound	Particulate matter ≥ 10µm per ml ([1]; 0.1 % (w/v) solvent) [per ml]	Particulate matter ≥ 10µm per ml ([1]; 0.3 % (w/v) solvent) [per ml]	Particulate matter ≥ 10µm per ml ([1]; 1.0 % (w/v) solvent) [per ml]	Particulate matter ≥ 10µm per ml [1, 3]	Particulate matter ≥ 10µm per ml [1, 4]	Particulate matter ≥ 10µm per ml ([2]; 0.1 % (w/v) solvent) [per ml]	Particulate matter ≥ 10µm per ml ([2]; 0.3 % (w/v) solvent) [per ml]	Particulate matter ≥ 10µm per ml ([2]; 1.0 % (w/v) solvent) [per ml]	Particulate matter ≥ 10µm per ml [2, 5]	Particulate matter ≥ 10µm per ml [2, 6]
OCc1ccccc1 [Benzyl alcohol]	8	0	0	0 per ml	*	10	0	0	0 per ml	*
CCO [Ethanol]	75	23	48	**	***	68	22	16	*	**
Sorbitane monoleate [Sorbitane monoleate (SPAN® 80)]	83	74	56	**	***	–	–	–	–	–
